Laboratory results from patent publication US8835428B2, “Diacylglycerol acyltransferase inhibitors” (Piramal Enterprises Limited, priority 2008, dated 2014).

Molecular target: T1, hDGAT1 (Homo sapiens, UniProt O75907)
T1 construct: host or cells: Sf9 insect cells (baculovirus); microsomal preparation
T1 sequence (O75907 1-488): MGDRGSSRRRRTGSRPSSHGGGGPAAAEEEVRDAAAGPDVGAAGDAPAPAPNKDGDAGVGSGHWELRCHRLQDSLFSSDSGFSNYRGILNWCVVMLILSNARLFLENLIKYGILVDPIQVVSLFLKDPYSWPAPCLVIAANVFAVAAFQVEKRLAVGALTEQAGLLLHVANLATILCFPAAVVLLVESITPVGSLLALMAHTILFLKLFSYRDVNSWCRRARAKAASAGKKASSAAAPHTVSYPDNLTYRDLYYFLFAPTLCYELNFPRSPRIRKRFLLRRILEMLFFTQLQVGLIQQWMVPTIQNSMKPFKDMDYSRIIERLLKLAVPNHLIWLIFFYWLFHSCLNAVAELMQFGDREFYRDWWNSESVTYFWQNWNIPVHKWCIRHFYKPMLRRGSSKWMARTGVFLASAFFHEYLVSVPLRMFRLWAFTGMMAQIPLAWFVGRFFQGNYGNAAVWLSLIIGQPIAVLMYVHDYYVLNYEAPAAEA
Assay: In-vitro DGAT1 assay (hDGAT1 microsomes from Sf9 cells, 14C oleoyl CoA, triglyceride formation)
Assay type: biochemical
Details: At 1 μM
Procedure: In-vitro Protocol for DGAT1 Assay
Sf9 Culture and Treatment
Sf9 cells were grown in T25 flasks containing Graces's Insect media with 10% FBS with antibiotic (100 units/mL penicillin, 100 μg/mL streptomycin sulphate, 0.25 μg/mL Amptotericin B as Fungizone) grown in a 27° C. incubator:
hDGAT1ORF expression clone (RZPDo839C09146 in pDEST vector) was obtained from RZPD, Germany. hDGAT1 bacmid DNA was obtained by transformation of the hDGAT expression clone into DH10Bac E. coli competent cells. Approximately 1 μg of hDGAT1 bacmid DNA was infected into Sf9 cells with Cellfectin (Invitrogen) reagent. Following infection, Sf9 cells were incubated at 27° C. for 30 minutes. Five hours after infection, the media was replaced with growth media containing antibiotic (100 units/mL penicillin, 100 μg/mL streptomycin sulphate, 0.25 μg/mL Amptotericin B as Fungizone) and incubated at 27° C. for 72 hours. The supernatant containing the virus was centrifuged at 1500×g for 5 minutes, passed through 0.22 μm filter, and subsequently stored at 4° C. The virus was further amplified three more times by re-infection of Sf9 cells and the viral titer was determined by plaque assay.
Preparation of DGAT1 Microsomes from Sf9 Cells
Sf9 cells were seeded in spinner flasks on day 0 at a cell density of 1×10^6 and infected on day 1 with hDGAT1 baculovirus at a multiplicity of infection (MOI) of 5 and a cell density of 2×10^6. On day 3 (or 66-72 hours), cells were harvested and centrifuged at 2500×g for 10 minutes. Pellet was resuspended in lysis buffer (100 mM sucrose, 50 mM KCl, 40 mM KH2PO4, 30 mM EDTA, pH 7.2) and passed through 21-gauge needle approximately 10 times. The mixture was centrifuged at 12,000 rpm in a Sigma 12158-H rotor at 4° C. for 30 minutes. The supernatant was subjected to centrifugation at 35,000 rpm in a Beckman Ti-45 rotor at 4° C. for 1 hour. The resultant pellet containing the microsomes were resuspended overnight in 1 mL of lysis buffer and total protein concentration was estimated using Bradford Reagent. Microsomes were aliquoted and stored at −20° C.
Measurement of DGAT1 Activity
Frozen aliquots of hDGAT1 containing microsomes were thawed (5-10 mg/mL total protein) on ice and diluted to a working stock of 1 mg/mL with DGAT Assay Buffer (DAB). The DGAT reaction assay was performed by following the procedure described in U.S. Pat. No. 6,607,893 with some modifications that are described below.
Preparation of DGAT1 substrate mixture: 1 mL stock solution of DGAT1 substrate mixture contains (i) 5.6 μL of ^14C oleoyl CoA (16.8 nCi) and 35 μL 1,2-dioleoyl-sn-glycerol (409.5 μM) or (ii) 5.6 μL of ^14C oleoyl CoA (16.8 nCi) and 105 μL 1,2-dioleoyl-sn-glycerol (1228.5 μM) or (iii) 5.6 μL of ^14C oleoyl CoA (16.8 nCi) and 140 μL 1,2-dioleoyl-sn-glycerol (1638 μM).
1,2-sn-dioleoylglycerol substrate concentration in the 1 mL stock solution of DGAT1 substrate mixture was varied depending on the microsome concentration used in the assay reaction. 1,2-dioleoyl-sn-glycerol stock (19.5 mM) was prepared by dissolving 25 mg of 1,2-dioleoyl-sn-glycerol (Sigma, US) in 2060 μL of acetone. The assay was performed in duplicates in a reaction volume of 100 μL. The reaction volume consisted of: • (i) 27.5 μL of DGAT assay buffer (0.25M Sucrose, 1 mM EDTA (pH 8.0), 150 mM Tris-HCl, pH 7.4, 1.25 mg/mL, fatty acid free BSA), • (ii) 10 μL of compound, of present invention or standard (dissolved in DMSO and diluted to 10× with DAB and screened at 10 μM, 5 μM and 1 μM), • (iii) 60 μL DGAT1 substrate mixture taken from a 1 mL stock (16.8 nCi of ^14C oleoyl CoA and 409.5 μM or 1228.5 μM or 1638 μM of 1,2-dioleyl-sn-glycerol), • (iv) 2.5-10 μL of 1 mg/mL of microsomes (the amount of assay buffer was varied depending upon the concentration of microsome to make up the volume to 100 μL). Procedure:
The reaction was started by the addition of 2.5-10 μL of 1 mg/mL of microsomes (iv) to a mixture of (i), (ii) and (iii), vortexed and incubated at 37° C. for 10 minutes. […]

| % inhibition of hDGAT1 | Compound |
| --- | --- |
| + (>0% Inhibition ≦50) | 2-(3-(4-(Benzyloxy)phenyl)isoxazole-5-carboxamido)-3-methylbutanoic acid [Example 324] |

Same assay, conditions: At 10 μM

| Compound | % inhibition of hDGAT1 | inhibition at 10 µM |
| --- | --- | --- |
| 7-{3-[4-(6-Fluoro-benzothiazol-2-ylamino)-phenyl]-isoxazole-5-yl}-9-oxa-6,8-diaza-spiro[4,5]dec-7-en-10-one [Example 67] | +++ (>75% Inhibition ≦100) | – |
| CCOC(=O)c1cc(-c2ccc(Nc3nc4ccc(F)cc4s3)cc2)no1 [Example 1, 3-[4-(6-Fluoro-benzothiazol-2-ylamino)-phenyl]-isoxazole-5-carboxylic acid ethyl ester] | – | 50 to 75% |
| O=C(O)c1cc(-c2ccc(Nc3nc4ccc(F)cc4s3)cc2)no1 [Example 2, 3-[4-(6-Fluoro-benzothiazol-2-ylamino)-phenyl]-isoxazole-5-carboxylic acid] | – | 0 to 50% |
| NC(=O)c1cc(-c2ccc(Nc3nc4ccc(F)cc4s3)cc2)no1 [Example 3, 3-[4-(6-Fluoro-benzothiazol-2-ylamino)-phenyl]-isoxazole-5-carboxylic acid amide] | – | 0 to 50% |
| NC(=S)c1cc(-c2ccc(Nc3nc4ccc(F)cc4s3)cc2)no1 [Example 4, 3-[4-(6-Fluoro-benzothiazol-2-ylamino)-phenyl]-isoxazole-5-carbothioic acid amide] | – | 0 to 50% |
| COC(=O)[C@@H](NC(=O)c1cc(-c2ccc(Nc3nc4ccc(F)cc4s3)cc2)no1)C(C)C [Example 5, (S)-2-({3-[4-(6-Fluoro-benzothiazol-2-ylamino)-phenyl]-isoxazole-5-carbonyl}-amino)-3-methyl-butyric acid methyl ester] | – | 50 to 75% |
| COC(=O)[C@@H](NC(=S)c1cc(-c2ccc(Nc3nc4ccc(F)cc4s3)cc2)no1)C(C)C [Example 6, (S)-2-({3-[4-(6-Fluoro-benzothiazol-2-ylamino)-phenyl]-isoxazole-5-carbothioyl}-amino)-3-methyl-butyric acid methyl ester] | – | 0 to 50% |
| COC(=O)[C@@H](NC(=NO)c1cc(-c2ccc(Nc3nc4ccc(F)cc4s3)cc2)no1)C(C)C [Example 7, (S)-2-({3-[4-(6-Fluoro-benzothiazol-2-ylamino)-phenyl]-N-hydroxy-isoxazole-5-carboximidoyl}-amino)-3-methyl-butyric acid methyl ester] | – | 50 to 75% |
| CC(C)[C@H](NC(=NO)c1cc(-c2ccc(Nc3nc4ccc(F)cc4s3)cc2)no1)C(=O)O [Example 8, (S)-2-({3-[4-(6-Fluoro-benzothiazol-2-ylamino)-phenyl]-N-hydroxy-isoxazole-5-carboximidoyl}-amino)-3-methyl-butyric acid] | – | 50 to 75% |
| COC(=O)[C@H](CO)NC(=O)c1cc(-c2ccc(Nc3nc4ccc(F)cc4s3)cc2)no1 [Example 9, (S)-2-({3-[4-(6-Fluoro-benzothiazol-2-ylamino)-phenyl]-isoxazole-5-carbonyl}-amino)-3-hydroxy-propionic acid methyl ester] | – | 0 to 50% |
| O=C(N[C@@H](CO)C(=O)O)c1cc(-c2ccc(Nc3nc4ccc(F)cc4s3)cc2)no1 [Example 10, (S)-2-({3-[4-(6-Fluoro-benzothiazol-2-ylamino)-phenyl]-isoxazole-5-carbonyl}-amino)-3-hydroxy-propionic acid] | – | 50 to 75% |
| COC(=O)[C@H]1CSC(c2cc(-c3ccc(Nc4nc5ccc(F)cc5s4)cc3)no2)=N1 [Example 11, (S)-2-{3-[4-(6-Fluoro-benzothiazol-2-ylamino)-phenyl]-isoxazol-5-yl}-4,5-dihydro-thiazole-4-carboxylic acid methyl ester] | – | 0 to 50% |
| COC[C@H](NC(=O)c1cc(-c2ccc(Nc3nc4ccc(F)cc4s3)cc2)no1)C(=O)OC [Example 12, (S)-2-({3-[4-(6-Fluoro-benzothiazol-2-ylamino)-phenyl]-isoxazole-5-carbonyl}-amino)-3-methoxy-propionic acid methyl ester] | – | 50 to 75% |
| COC[C@H](NC(=O)c1cc(-c2ccc(Nc3nc4ccc(F)cc4s3)cc2)no1)C(=O)O [Example 13, (S)-2-({3-[4-(6-Fluoro-benzothiazol-2-ylamino)-phenyl]-isoxazole-5-carbonyl}-amino)-3-methoxy-propionic acid] | – | 75 to 100% |

Now from value to compound:

| % inhibition of hDGAT1 | inhibition at 10 µM | Compound |
| --- | --- | --- |
| – | 0 to 50% | COC[C@H](NC(=S)c1cc(-c2ccc(Nc3nc4ccc(F)cc4s3)cc2)no1)C(=O)OC [Example 14, (S)-2-({3-[4-(6-Fluoro-benzothiazol-2-ylamino)-phenyl]-isoxazole-5-carbothioyl}-amino)-3-methoxy-propionic acid methyl ester] |
| – | 50 to 75% | COC[C@H](NC(=S)c1cc(-c2ccc(Nc3nc4ccc(F)cc4s3)cc2)no1)C(=O)O [Example 15, (S)-2-({3-[4-(6-Fluoro-benzothiazol-2-ylamino)-phenyl]-isoxazole-5-carbothioyl}-amino)-3-methoxy-propionic acid] |
| – | 50 to 75% | COC[C@H](NC(=NO)c1cc(-c2ccc(Nc3nc4ccc(F)cc4s3)cc2)no1)C(=O)OC [Example 16, (S)-2-({3-[4-(6-Fluoro-benzothiazol-2-ylamino)-phenyl]-N-hydroxy-isoxazole-5-carboximidoyl}-amino)-3-methoxy-propionic acid methyl ester] |
| – | 0 to 50% | COC[C@H](NC(=NO)c1cc(-c2ccc(Nc3nc4ccc(F)cc4s3)cc2)no1)C(=O)O [Example 17, (S)-2-({3-[4-(6-Fluoro-benzothiazol-2-ylamino)-phenyl]-N-hydroxy-isoxazole-5-carboximidoyl}-amino)-3-methoxy-propionic acid] |
| – | 50 to 75% | COC(=O)[C@@H]1CCCN1C(=O)c1cc(-c2ccc(Nc3nc4ccc(F)cc4s3)cc2)no1 [Example 18, (S)-1-{3-[4-(6-Fluoro-benzothiazol-2-ylamino)-phenyl]-isoxazole-5-carbonyl}-pyrrolidine-2-carboxylic acid methyl ester] |
| – | 50 to 75% | O=C(O)[C@@H]1CCCN1C(=O)c1cc(-c2ccc(Nc3nc4ccc(F)cc4s3)cc2)no1 [Example 19, (S)-1-{3-[4-(6-Fluoro-benzothiazol-2-ylamino)-phenyl]-isoxazole-5-carbonyl}-pyrrolidine-2-carboxylic acid] |
